Legend:
Serum-Lipoproteine = assay: Effect on serum lipoproteins (cholesterol in serum and in ultracentrifuge fractions) in rats after 7 days of oral treatment; type: in vivo, männlichen Wistar-Ratten; conditions: for % Veränderung des Cholesterins gegenüber Kontrolle im Serum / % Veränderung des Cholesterins gegenüber Kontrolle in der Serum-Lipoprotein-Fraktion HDL / % Veränderung des Cholesterins gegenüber Kontrolle in der Serum-Lipoprotein-Fraktion LDL / % Veränderung des Cholesterins gegenüber Kontrolle in der Serum-Lipoprotein-Fraktion VLDL: oral (gavage), 7 days, pooled serum
Excerpt: Die Wirkung der angeführten Verbindungen auf die Serum- Lipoproteine wurde an männlichen Wistar-Ratten untersucht, die 7 Tage per Schlundsonde mit den angeführten in Polyäthylenglykol 400 suspendierten Verbindungen behandelt wurden. Außerdem wurde eine Kontrollgruppe, die nur das Lösungsmittel Polyäthylenglykol 400 erhielt, mitgeführt, sowie eine Ratten-Gruppe, die zum Vergleich das Standardhypolipidämikum Clofibrat, ebenfalls in Polyäthylenglykol 400 gelöst, erhielt. Pro Gruppe wurden in der Regel 10 Tiere eingesetzt, denen am Ende der Behandlung das Blut nach leichter Äthernakose aus dem Orbitalplexus entnommen wurde. Das daraus gewonnene Serum wurde gepoolt. Die Serum- Lipoproteine wurden in der Ultrazentrifuge in folgende Dichteklassen getrennt: • VLDL 1,006; LDL 1,006 bis 1,04; HDL 1,04 bis 1,21.
Aus den in der Ultrazentrifuge isolierten LipoproteinFraktionen wurde das darin enthaltene Choletserin vollenzymatisch nach der CHOD-PAP-Methode mittels der Testkombination von Boehringer Mannheim bestimmt und die Werte in ug/ml Serum umgerechnet. In der angeführten Tabelle (S.8) ist die Veränderung des Lipoprotein-Cholesterins in der behandelten Gruppe gegenüber einer unter gleichen Bedingungen mitgeführten Kontrollgruppe angegeben.
% Veränderung der Lipoproteine in Ratten-Serum nach siebentägiger oraler Behandlung mit den Verbindungen

Relative liver weight = type: in vivo; conditions: in wirksamer Dosis; result in words
Excerpt: Es ist allgemein anerkannt, daß für die Entstehung artericsklerotischer Gefäßveränderungen, insbesondere der coronaren Herzkrankheit, Hyperlipoproteinämien einen wesentlichen Risikofaktor darstellen. Für die Prophylaxe und die Regression von atherosklerotischen Veränderungen kommt daher der Senkung erhöhter Serum-Lipoproteine eine außerordentliche Bedeutung zu. Hierbei kommt es aber auf ganz bestimmte Klassen von Serum-Lipoproteinen an, da die low density (LDL) und very low density-Lipoproteine (VLDL) einen atherogenen Risikofaktor darstellen, während die high density-Lipoproteine (HDL) eine Schutzfunktion gegenüber der coronaren Herzkrankheit darstellen. Hypolipidämika sollen demnach VLDL-Cholesterin und LDL-Cholesterin im Serum erniedrigen, dabei aber die HDL-Cholesterin-Konzentration nach Möglichkeit unbeeinflußt lassen oder sogar erhöhen. Die erfindungsgemäßen Verbindungen haben wertvolle therapeutische Eigenschaften. So erniedrigen sie vor allem die Konzentration von LDL und VLDL, während die HDL-Fraktion entweder in wesentlich geringerem Maße erniedrigt, oder sogar erhöht wird..Sie können daher zur Prophylaxe und Regression von atherosklerotischen Veränderungen herangezogen werden, indem sie einen kausalen Risikofaktor ausschalten. Hierzu zählen nicht nur die primären Hyperlipoproteinämien, sondern auch gewisse.sekundäre Hyperlipidämien wie sie z.B. beim Diabtes vorkommen.

| Structure (SMILES) | % Veränderung des Cholesterins gegenüber Kontrolle im Serum (Serum-Lipoproteine; Dosis 10 mg/kg/Tag) | % Veränderung des Cholesterins gegenüber Kontrolle in der Serum-Lipoprotein-Fraktion HDL (Serum-Lipoproteine; Dosis 10 mg/kg/Tag) | % Veränderung des Cholesterins gegenüber Kontrolle in der Serum-Lipoprotein-Fraktion LDL (Serum-Lipoproteine; Dosis 10 mg/kg/Tag) | % Veränderung des Cholesterins gegenüber Kontrolle in der Serum-Lipoprotein-Fraktion VLDL (Serum-Lipoproteine; Dosis 10 mg/kg/Tag) | also measured |
| --- | --- | --- | --- | --- | --- |
| Cc1ccc(S(=O)(=O)N(C=Nc2ccc(Oc3ccccc3)cc2)Cc2ccccc2)cc1 [Beispiel 2] | -4% | +3% | -22% | -50% | – |
| CCCN(C=Nc1ccc(Oc2ccccc2)cc1)S(=O)(=O)c1ccc(C)cc1 [Beispiel 3] | -5% | +8% | -22% | -32% | – |
| C#CCN(C=Nc1ccc(Oc2ccccc2)cc1)S(=O)(=O)c1ccc(C)cc1 [Beispiel 7] | -1% | +5% | -22% | -51% | – |
| Cc1ccc(S(=O)(=O)N(C)C=Nc2ccc(Oc3ccccc3)cc2)cc1 [Beispiel 12] | -6% | -1% | -42% | -70% | – |
| Cc1ccc(S(=O)(=O)N(C)C=Nc2ccc(Oc3ccc(Cl)cc3Cl)cc2)cc1 [Beispiel 13] | -6% | +1% | -39% | -100% | – |
| Cc1ccc(S(=O)(=O)N(C)C=Nc2ccc(Sc3ccccc3)cc2)cc1 [Beispiel 25] | -5% | +5% | -45% | -70% | – |
| CCCCN(C=Nc1ccc(Sc2ccccc2)cc1)S(=O)(=O)c1ccc(C)cc1 [Beispiel 27] | – | – | – | – | % Veränderung des Cholesterins gegenüber Kontrolle im Serum (Serum-Lipoproteine; Dosis 3 mg/kg/Tag): -18%; % Veränderung des Cholesterins gegenüber Kontrolle in der Serum-Lipoprotein-Fraktion HDL (Serum-Lipoproteine; Dosis 3 mg/kg/Tag): -2%; % Veränderung des Cholesterins gegenüber Kontrolle in der Serum-Lipoprotein-Fraktion LDL (Serum-Lipoproteine; Dosis 3 mg/kg/Tag): -50%; % Veränderung des Cholesterins gegenüber Kontrolle in der Serum-Lipoprotein-Fraktion VLDL (Serum-Lipoproteine; Dosis 3 mg/kg/Tag): -13% |
| Cc1ccc(S(=O)(=O)N(C=Nc2ccc(Sc3ccccc3)cc2)C(C)C)cc1 [Beispiel 28] | – | – | – | – | % Veränderung des Cholesterins gegenüber Kontrolle im Serum (Serum-Lipoproteine; Dosis 3 mg/kg/Tag): -5%; % Veränderung des Cholesterins gegenüber Kontrolle in der Serum-Lipoprotein-Fraktion HDL (Serum-Lipoproteine; Dosis 3 mg/kg/Tag): +2%; % Veränderung des Cholesterins gegenüber Kontrolle in der Serum-Lipoprotein-Fraktion LDL (Serum-Lipoproteine; Dosis 3 mg/kg/Tag): -25%; % Veränderung des Cholesterins gegenüber Kontrolle in der Serum-Lipoprotein-Fraktion VLDL (Serum-Lipoproteine; Dosis 3 mg/kg/Tag): -5% |
| CCN(C=Nc1ccc(Sc2ccccc2)cc1)S(=O)(=O)c1ccc(C)cc1 [Beispiel 30] | -3% | -1% | -27% | – | – |
| Cc1ccc(S(=O)(=O)N(C)C=Nc2c(C)cc(C)cc2C)cc1 [Beispiel 34] | +10% | +14% | -36% | – | – |
| Cc1ccc(S(=O)(=O)N(C)C=Nc2cc(C(F)(F)F)cc(C(F)(F)F)c2)cc1 [Beispiel 36] | -2% | – | – | – | – |
| Cc1ccc(S(=O)(=O)N(C)C=Nc2ccccc2C)cc1 [Beispiel 37] | -8% | +3% | -51% | – | – |
| Cc1ccc(S(=O)(=O)N(C)C=Nc2ccc(Cl)cc2C)cc1 [Beispiel 38] | -8% | +2% | -36% | -30% | – |
| Cc1ccc(S(=O)(=O)N(C)C=Nc2ccc(Cl)cc2C(F)(F)F)cc1 [Beispiel 39] | – | – | – | – | % Veränderung des Cholesterins gegenüber Kontrolle im Serum (Serum-Lipoproteine; Dosis 3 mg/kg/Tag): -3%; % Veränderung des Cholesterins gegenüber Kontrolle in der Serum-Lipoprotein-Fraktion HDL (Serum-Lipoproteine; Dosis 3 mg/kg/Tag): -7%; % Veränderung des Cholesterins gegenüber Kontrolle in der Serum-Lipoprotein-Fraktion LDL (Serum-Lipoproteine; Dosis 3 mg/kg/Tag): -26%; % Veränderung des Cholesterins gegenüber Kontrolle in der Serum-Lipoprotein-Fraktion VLDL (Serum-Lipoproteine; Dosis 3 mg/kg/Tag): -26% |
| CN(C#N)C=Nc1ccc(Oc2ccccc2)cc1 [Beispiel 48] | – | – | – | – | % Veränderung des Cholesterins gegenüber Kontrolle im Serum (Serum-Lipoproteine; Dosis 3 mg/kg/Tag): -8%; % Veränderung des Cholesterins gegenüber Kontrolle in der Serum-Lipoprotein-Fraktion HDL (Serum-Lipoproteine; Dosis 3 mg/kg/Tag): -2%; % Veränderung des Cholesterins gegenüber Kontrolle in der Serum-Lipoprotein-Fraktion LDL (Serum-Lipoproteine; Dosis 3 mg/kg/Tag): -56% |
| CN(C#N)C=Nc1ccc(Oc2ccc(Cl)cc2Cl)cc1 [Beispiel 49] | – | – | – | – | % Veränderung des Cholesterins gegenüber Kontrolle im Serum (Serum-Lipoproteine; Dosis 3 mg/kg/Tag): +2%; % Veränderung des Cholesterins gegenüber Kontrolle in der Serum-Lipoprotein-Fraktion HDL (Serum-Lipoproteine; Dosis 3 mg/kg/Tag): +2%; % Veränderung des Cholesterins gegenüber Kontrolle in der Serum-Lipoprotein-Fraktion LDL (Serum-Lipoproteine; Dosis 3 mg/kg/Tag): -48% |
| CN(C#N)C=Nc1ccc(Oc2ccc(Cl)cc2)c(Cl)c1 [Beispiel 50] | – | – | – | – | % Veränderung des Cholesterins gegenüber Kontrolle in der Serum-Lipoprotein-Fraktion VLDL (Serum-Lipoproteine; Dosis 1 mg/kg/Tag): +3% |
| CCOC(=O)C(C)(C)Oc1ccc(Cl)cc1 [Clofibrat, reference compound] | – | – | – | – | relatives Lebergewicht (Relative liver weight): starken Erhöhung des relativen Lebergewichts; % Veränderung des Cholesterins gegenüber Kontrolle im Serum (Serum-Lipoproteine; Dosis 100 mg/kg/Tag): -24%; % Veränderung des Cholesterins gegenüber Kontrolle in der Serum-Lipoprotein-Fraktion HDL (Serum-Lipoproteine; Dosis 100 mg/kg/Tag): -33%; % Veränderung des Cholesterins gegenüber Kontrolle in der Serum-Lipoprotein-Fraktion LDL (Serum-Lipoproteine; Dosis 100 mg/kg/Tag): -25%; % Veränderung des Cholesterins gegenüber Kontrolle in der Serum-Lipoprotein-Fraktion VLDL (Serum-Lipoproteine; Dosis 100 mg/kg/Tag): -30%; Wirkung auf die Lipoproteinfraktionen (VLDL, LDL, HDL) (Serum-Lipoproteine; summary in words of the table, 7 days oral): etwa gleichstarke Senkung der LDL-Fraktion und der HDL-Fraktion |

Reference: patent publication EP0054898A1, “Formamidine derivatives, preparation and use thereof, pharmaceutical compositions containing them and their preparation” (HOECHST AKTIENGESELLSCHAFT, priority 1980, dated 1982)
